Reference: patent publication US20230122344A1, “ANTAGONISTS OF THE MUSCARINIC ACETYLCHOLINE RECEPTOR M4” (Vanderbilt University, priority 2019, published 2023)
pIC50: −log10 of the molar value.

Biological target: T1, Human M4 (Homo sapiens, UniProt P08173)
T1 construct: expressed in transfected cells; host or cells: CHO-K1 (ATCC), co-transfected with chimeric G protein Gqi5
T1 sequence (P08173 1-479): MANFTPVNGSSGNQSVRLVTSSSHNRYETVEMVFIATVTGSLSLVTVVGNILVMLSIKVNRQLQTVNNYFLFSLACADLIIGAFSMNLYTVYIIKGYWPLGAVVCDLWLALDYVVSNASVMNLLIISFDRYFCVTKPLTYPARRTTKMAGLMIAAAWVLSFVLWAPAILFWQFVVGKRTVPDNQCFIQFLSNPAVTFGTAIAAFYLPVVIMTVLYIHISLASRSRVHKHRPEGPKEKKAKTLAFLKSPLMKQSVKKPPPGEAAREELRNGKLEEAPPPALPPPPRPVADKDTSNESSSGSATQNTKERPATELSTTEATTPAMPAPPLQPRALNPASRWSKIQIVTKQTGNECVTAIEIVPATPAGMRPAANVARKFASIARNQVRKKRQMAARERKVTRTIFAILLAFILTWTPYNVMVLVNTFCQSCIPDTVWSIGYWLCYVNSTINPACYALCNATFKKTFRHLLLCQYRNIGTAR
Experiment: mAChR M4 cell-based functional assay (calcium flux, antagonism of EC80 acetylcholine response)
Settings: M4/Gqi5/CHO-K1 cells; for remaining activity at 30 µM: CHO-K1, % ACh maximum at 30 μM, read-out: Human M4 Emin; for pIC50: decrease of response elicited by EC80 acetylcholine
Procedure, shortened: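 CHO-K1 cells stably expressing human or rat M4 with Gqi5, Fluo-4 loaded; calcium measured by fluorescence ratio on FDSS. Compound added, then EC20 acetylcholine at 143 s and EC80 at 268 s; IC50 from decrease of EC80 response, four-parameter logistic fit.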

Row | SMILES | remaining activity at 30 µM [%] | pIC50
1 | Fc1cc(F)c(F)c(-c2nnc(N[C@H]3C[C@@H]4CN(CC5CCCOC5)C[C@@H]4C3)cc2C(F)F)c1 (single isomer, unassigned) [compound 48] | 2 | 8.89
2 | Fc1cc(F)c(F)c(-c2nnc(N[C@H]3C[C@@H]4CN(C[C@@H]5COCCO5)C[C@@H]4C3)cc2C(F)F)c1 [compound 56, (3aR,5s,6aS)-2-(((R)-1,4-dioxan-2-yl)methyl)-N-(5-(difluoromethyl)-6-(2,3,5-trifluorophenyl)pyridazin-3-yl)octahydrocyclopenta[c]pyrrol-5-amine] | 2 | 9.18
3 | [2H]C([2H])(C1CCOCC1)N1C[C@H]2C[C@H](Nc3nnc(N4CCC(F)(F)CC4)cc3C3CC3)C[C@H]2C1 [compound 28, (3aR,5s,6aS)-N-(4-cyclopropyl-6-(4,4-difluoropiperidin-1-yl)pyridazin-3-yl)-2-((tetrahydro-2H-pyran-4-yl)methyl-d2)octahydrocyclopenta[c]pyrrol-5-amine] | 3 | 6.73
4 | [2H]C([2H])(C1CCOCC1)N1C[C@H]2C[C@H](Nc3nnc(-c4cc(F)ccc4F)c(C)c3C)C[C@H]2C1 [compound 60, (3aR,5s,6aS)-N-(6-(2,5-difluorophenyl)-4,5-dimethylpyridazin-3-yl)-2-((tetrahydro-2H-pyran-4-yl)methyl-d2)octahydrocyclopenta[c]pyrrol-5-amine] | 2 | 9.18
5 | Cc1ccc(F)cc1-c1nnc(N[C@H]2C[C@@H]3CN(CC4CCOCC4)C[C@@H]3C2)cc1C(F)F [compound 43, (3aR,5s,6aS)-N-(5-(difluoromethyl)-6-(5-fluoro-2-methylphenyl)pyridazin-3-yl)-2-((tetrahydro-2H-pyran-4-yl)methyl)octahydrocyclopenta[c]pyrrol-5-amine] | 2 | 9.24
6 | [2H]C([2H])(C1CCOCC1)N1C[C@H]2C[C@H](Nc3nnc(-c4cc(F)cc(F)c4F)cc3C3CC3(F)F)C[C@H]2C1 (stereo partly drawn) [compound 33, (3aR,5s,6aS)-N-(4-(2,2-difluorocyclopropyl)-6-(2,3,5-trifluorophenyl)pyridazin-3-yl)-2-((tetrahydro-2H-pyran-4-yl)methyl-d2)octahydrocyclopenta[c]pyrrol-5-amine] | 3 | 8.19
7 | COc1ccc(F)cc1-c1nnc(N[C@H]2C[C@@H]3CN(CC4CCOCC4)C[C@@H]3C2)cc1C(F)F [compound 42, (3aR,5s,6aS)-N-(5-(difluoromethyl)-6-(5-fluoro-2-methoxyphenyl)pyridazin-3-yl)-2-((tetrahydro-2H-pyran-4-yl)methyl)octahydrocyclopenta[c]pyrrol-5-amine] | 2 | 9.17
8 | CC(c1ccccn1)N1C[C@H]2C[C@H](Nc3cc(C(F)F)c(-c4cc(F)cc(F)c4F)nn3)C[C@H]2C1 (stereo partly drawn) [compound 50, (3aR,5s,6aS)-N-(5-(difluoromethyl)-6-(2,3,5-trifluorophenyl)pyridazin-3-yl)-2-(1-(pyridin-2-yl)ethyl)octahydrocyclopenta[c]pyrrol-5-amine] | 2 | 7.46
9 | Cc1c(-c2cc(F)ccc2Cl)nnc(N[C@H]2C[C@@H]3CN(CC4CCOCC4)C[C@@H]3C2)c1C#N [compound 67, 6-(2-chloro-5-fluorophenyl)-5-methyl-3-(((3aR,5s,6aS)-2-((tetrahydro-2H-pyran-4-yl)methyl)octahydrocyclopenta[c]pyrrol-5-yl)amino)pyridazine-4-carbonitrile] | 2 | 9.08
10 | [2H]C([2H])(C1CCOCC1)N1C[C@H]2C[C@H](Nc3cc(C)c(-c4cc(F)cc(F)c4F)nn3)C[C@H]2C1 [compound 37, (3aR,5s,6aS)-N-(5-methyl-6-(2,3,5-trifluorophenyl)pyridazin-3-yl)-2-((tetrahydro-2H-pyran-4-yl)methyl-d2)octahydrocyclopenta[c]pyrrol-5-amine] | 3 | 9.16
11 | Fc1ccc(F)c(-c2cc(C(F)F)c(N[C@H]3C[C@@H]4CN(C[C@H]5COCCO5)C[C@@H]4C3)nn2)c1 [compound 81, (3aR,5R,6aS)-2-(((S)-1,4-dioxan-2-yl)methyl)-N-(4-(difluoromethyl)-6-(2,5-difluorophenyl)pyridazin-3-yl)octahydrocyclopenta[c]pyrrol-5-amine] | 4 | 6.74
12 | Cc1c(-c2cc(F)ccc2F)nnc(N[C@H]2C[C@@H]3CN(C[C@H]4CC5CCC4O5)C[C@@H]3C2)c1C#N (stereo partly drawn) [compound 66, 3-(((3aR,5s,6aS)-2-(((2R)-7-oxabicyclo[2.2.1]heptan-2-yl)methyl)octahydrocyclopenta[c]pyrrol-5-yl)amino)-6-(2,5-difluorophenyl)-5-methylpyridazine-4-carbonitrile] | 3 | 7.75
13 | [2H]C([2H])(C1CCOCC1)N1C[C@H]2C[C@H](Nc3nnc(-c4cc(F)ccc4F)cc3C3CCC3)C[C@H]2C1 [compound 30, (3aR,5s,6aS)-N-(4-cyclobutyl-6-(2,5-difluorophenyl)pyridazin-3-yl)-2-((tetrahydro-2H-pyran-4-yl)methyl-d2)octahydrocyclopenta[c]pyrrol-5-amine] | 2 | 6.94
14 | Cc1c(-c2ccc(F)cc2)nnc(N[C@H]2C[C@@H]3CN(CC4CCOCC4)C[C@@H]3C2)c1C#N [compound 73, 6-(4-fluorophenyl)-5-methyl-3-(((3aR,5s,6aS)-2-((tetrahydro-2H-pyran-4-yl)methyl)octahydrocyclopenta[c]pyrrol-5-yl)amino)pyridazine-4-carbonitrile] | 4 | 8.46
15 | Fc1cc(F)c(F)c(-c2nnc(N[C@H]3C[C@@H]4CN(CCC5CCOCC5)C[C@@H]4C3)cc2C(F)F)c1 [compound 52, (3aR,5s,6aS)-N-(5-(difluoromethyl)-6-(2,3,5-trifluorophenyl)pyridazin-3-yl)-2-(2-(tetrahydro-2H-pyran-4-yl)ethyl)octahydrocyclopenta[c]pyrrol-5-amine] | 2 | 8.98
16 | [2H]C([2H])(C1CCOCC1)N1C[C@H]2C[C@H](Nc3cc(C(F)F)c(-c4cc(F)cc(F)c4F)nn3)C[C@H]2C1 [compound 40, (3aR,5s,6aS)-N-(5-(difluoromethyl)-6-(2,3,5-trifluorophenyl)pyridazin-3-yl)-2-((tetrahydro-2H-pyran-4-yl)methyl-d2)octahydrocyclopenta[c]pyrrol-5-amine] | 3 | 8.86
17 | [2H]C([2H])(C1CCOCC1)N1C[C@H]2C[C@H](Nc3nnc(-c4ccc5nn(C)cc5c4)cc3C)C[C@H]2C1 [compound 22, (3aR,5s,6aS)-N-(4-methyl-6-(2-methyl-2H-indazol-5-yl)pyridazin-3-yl)-2-((tetrahydro-2H-pyran-4-yl)methyl-d2)octahydrocyclopenta[c]pyrrol-5-amine] | 4 | 8.74
